Reference: DBAASP
Values after ≈ are worked out from the molar mass of the structure shown.

Experiments:
Assay in all cases: ≥ marks a high value that may be exact or a test limit, other limits are often not marked, values filed in µg/mL are converted to µM
[1] = system: Streptococcus pyogenes M1T1 5448
[2] = system: Pseudomonas aeruginosa PAO1
[3] = system: Escherichia coli BL21
[4] = system: Staphylococcus aureus ATCC 49476
[5] = system: Pseudomonas aeruginosa ATCC 27853
[6] = system: Staphylococcus aureus MR
[7] = system: Candida albicans
[8] = system: Staphylococcus aureus
[9] = system: Escherichia coli
[10] = system: Bifidobacterium longum subsp. infantis
[11] = system: Zymomonas mobilis ATCC 10988
[12] = system: Bacillus subtilis DELTA
[13] = system: Escherichia coli DH5alpha
[14] = system: Candida parapsilosis
[15] = system: Enterococcus faecium ATCC 700221
[16] = system: Staphylococcus aureus ATCC 43300
[17] = system: Klebsiella pneumoniae ATCC 700603
[18] = system: Escherichia coli ATCC 25922
[19] = system: Acinetobacter baumannii ATCC BAA-747
[20] = system: Salmonella enterica ATCC 6539
[21] = system: Bacillus subtilis ATCC 6051
[22] = system: Escherichia coli NEB5alpha
[23] = system: Klebsiella pneumoniae WGLW2
[24] = system: Acinetobacter baumannii ATCC 7978
[25] = system: Staphylococcus aureus MW2
[26] = system: Candida albicans ATCC 10231
[27] = system: Staphylococcus aureus ATCC 29231
[28] = system: Cryptococcus neoformans ATCC 32264
[29] = system: Streptococcus suis CVCC 606
[30] = system: Escherichia coli CVCC 195
[31] = system: Candida albicans CGMCC 2.2411
[32] = system: Enterococcus faecalis CVCC 3936
[33] = system: Bacillus subtilis ATCC 6633
[34] = system: Salmonella enterica subsp. enterica serovar Pullorum CVCC 533
[35] = system: Salmonella enterica subsp. enterica serovar Typhimurium ATCC 14028
[36] = system: Pseudomonas aeruginosa CICC 10419
[37] = system: Escherichia coli CVCC 1515
[38] = system: Listeria ivanovii ATCC 19119
[39] = system: Salmonella enterica subsp. enterica serovar Pullorum CVCC 1809

SMILES: CC[C@H](C)[C@H](NC(=O)[C@H](Cc1c[nH]c2ccccc12)NC(=O)[C@H](C)NC(=O)[C@H](CCCN=C(N)N)NC(=O)[C@H](CCCCN)NC(=O)CNC(=O)[C@H](CCCCN)NC(=O)[C@H](CCC(=O)O)NC(=O)[C@H](CCC(N)=O)NC(=O)[C@@H](NC(=O)[C@H](CCCCN)NC(=O)[C@H](CCCCN)NC(=O)[C@H](CCCCN)NC(=O)[C@H](CC(C)C)NC(=O)[C@H](CCCN=C(N)N)NC(=O)[C@H](CCC(N)=O)NC(=O)[C@H](Cc1ccccc1)NC(=O)[C@@H](NC(=O)[C@@H](NC(=O)[C@H](CCC(=O)O)NC(=O)[C@H](CCCCN)NC(=O)CNC(=O)[C@H](C)N)[C@@H](C)O)[C@@H](C)CC)[C@@H](C)CC)C(=O)N[C@@H](C)C(=O)N[C@@H](Cc1c[nH]c2ccccc12)C(=O)O [AGKETIFQRLKKKIQEKGKRAWIAW]
- MIC [1]: 0.125 µM (≈ 0.377 µg/mL)
- MIC [2]: 32 µM (≈ 96.5 µg/mL)
- MIC [3]: 0.0156 µM (≈ 0.047 µg/mL)

SMILES: CC[C@H](C)[C@H](NC(=O)[C@H](CO)NC(=O)[C@H](Cc1ccccc1)NC(=O)[C@H](CC(C)C)NC(=O)CNC(=O)CNC(=O)[C@@H](NC(=O)[C@@H](NC(=O)[C@H](Cc1cnc[nH]1)NC(=O)[C@H](Cc1cnc[nH]1)NC(=O)[C@@H](NC(=O)[C@@H](N)Cc1ccccc1)[C@@H](C)CC)[C@@H](C)CC)[C@@H](C)CC)C(=O)NCC(=O)N[C@@H](CCCCN)C(=O)N[C@H](C(=O)N[C@H](C(=O)N[C@@H](Cc1cnc[nH]1)C(=O)N[C@@H](CCCN=C(N)N)C(=O)N[C@@H](CC(C)C)C(=O)N[C@H](C(=O)N[C@@H](CCCN=C(N)N)C(=O)N[C@@H](CCCN=C(N)N)C(=O)N[C@@H](CCCN=C(N)N)C(=O)N[C@@H](CCCN=C(N)N)C(=O)N[C@@H](CCCN=C(N)N)C(=O)O)[C@@H](C)CC)[C@@H](C)CC)[C@@H](C)CC [FIHHIIGGLFSIGKIIHRLIRRRRR]
- MIC [4]: 5.22 µM (≈ 16 µg/mL)
- MIC [5]: 167 µM (≈ 512 µg/mL)
- MIC [6]: 20.9 µM (≈ 64 µg/mL)
- MIC [7]: 41.8 µM (≈ 128 µg/mL)

SMILES: CC(C)C[C@H](NC(=O)[C@H](CC(=O)O)NC(=O)[C@H](CCCCN)NC(=O)[C@@H](N)Cc1ccccc1)C(=O)NCC(=O)N[C@@H](CCC(=O)O)C(=O)N[C@@H](CCC(=O)O)C(=O)N[C@@H](CC(N)=O)C(=O)N[C@@H](Cc1ccccc1)C(=O)N[C@@H](CCCCN)C(=O)O [FKDLGEENFK]
- MIC [8]: 2450 µM (≈ 3000 µg/mL)
- MIC [9]: 2450 µM (≈ 3000 µg/mL)
- MIC [10]: ≥ 2450 µM

SMILES: CC[C@H](C)[C@H](NC(=O)[C@H](CCCN=C(N)N)NC(=O)[C@H](CCC(N)=O)NC(=O)[C@@H](NC(=O)[C@@H](NC(=O)[C@H](CCCN=C(N)N)NC(=O)[C@H](CCCCN)NC(=O)[C@H](Cc1ccccc1)NC(C)=O)[C@@H](C)CC)C(C)C)C(=O)N[C@@H](CCCCN)C(=O)N[C@@H](CC(=O)O)C(=O)N[C@@H](CC(C)C)C(=O)N[C@@H](CC(C)C)C(=O)N[C@@H](CCCN=C(N)N)C(N)=O [FKRIVQRIKDLLR]
- MIC [11]: 23.7 µM (≈ 41 µg/mL)
- MIC [12]: ≥ 119 µM
- MIC [13]: ≥ 119 µM
- MIC [14]: ≥ 119 µM
- MIC [2]: 23.7 µM (≈ 41 µg/mL)

SMILES: NCCCC[C@H](NC(=O)CNC(=O)CNC(=O)[C@H](CCCN=C(N)N)NC(=O)[C@H](CS)NC(=O)[C@H](Cc1ccc(O)cc1)NC(=O)[C@H](Cc1c[nH]c2ccccc12)NC(=O)[C@H](CCCN=C(N)N)NC(=O)[C@H](Cc1c[nH]c2ccccc12)NC(=O)[C@H](Cc1cnc[nH]1)NC(=O)CNC(=O)CN)C(N)=O [GGHWRWYCRGGK]
- MIC [5]: 11 µM (≈ 16.1 µg/mL)
- MIC [15]: 3 µM (≈ 4.39 µg/mL)
- MIC [16]: 11 µM (≈ 16.1 µg/mL)
- MIC [17]: 11 µM (≈ 16.1 µg/mL)
- MIC [18]: 3 µM (≈ 4.39 µg/mL)
- MIC [19]: 11 µM (≈ 16.1 µg/mL)
- MIC [20]: 1 µM (≈ 1.46 µg/mL)

SMILES: CC[C@H](C)[C@H](NC(=O)[C@H](C)NC(=O)CNC(=O)[C@H](CCCCN)NC(=O)[C@H](CCC(=O)O)NC(=O)[C@H](CCC(=O)O)NC(=O)[C@H](CC(=O)O)NC(=O)[C@H](CCC(=O)O)NC(=O)[C@H](CC(N)=O)NC(=O)[C@H](CCCN=C(N)N)NC(=O)CN)C(=O)N[C@H](C(=O)N[C@@H](CCCCN)C(=O)N[C@H](C(=O)N[C@@H](CCCCN)C(=O)NCC(=O)NCC(=O)N[C@@H](CC(C)C)C(=O)O)C(C)C)C(C)C [GRNEDEEKGAIVKVKGGL]
- MIC [21]: ≥ 1000 µM
- MIC [22]: ≥ 1000 µM

SMILES: CC[C@H](C)[C@H](NC(=O)[C@H](Cc1c[nH]c2ccccc12)NC(=O)[C@H](CCCCN)NC(=O)[C@@H](N)CC(C)C)C(=O)NCC(=O)N[C@@H](CCCCN)C(=O)N[C@@H](CCCCN)C(=O)N[C@H](C(=O)N[C@@H](Cc1c[nH]c2ccccc12)C(=O)N[C@@H](CCCN=C(N)N)C(=O)N[C@H](C(=O)NCC(=O)N[C@@H](Cc1c[nH]c2ccccc12)C(=O)N[C@@H](CC(N)=O)C(=O)N[C@@H](Cc1c[nH]c2ccccc12)C(=O)N[C@@H](CCCN=C(N)N)C(=O)O)C(C)C)[C@@H](C)CC [LKWIGKKIWRVGWNWR]
- MIC [23]: ≥ 60.2 µM
- MIC [24]: 15.1 µM (≈ 32 µg/mL)
- MIC [25]: 30.1 µM (≈ 64 µg/mL)
- MIC [26]: 60.2 µM (≈ 128 µg/mL)
- MIC [27]: ≥ 60.2 µM

SMILES: NCCCC[C@H](NC(=O)[C@H](CCCCN)NC(=O)[C@H](Cc1c[nH]c2ccccc12)NC(=O)[C@H](CCCCN)NC(=O)[C@H](CCCN=C(N)N)NC(=O)[C@H](CCCN=C(N)N)NC(=O)[C@H](CCCCN)NC(=O)[C@@H](N)CCCN=C(N)N)C(N)=O [RKRRKWKK]
- MIC [28]: ≥ 200 µM

SMILES: CC(C)[C@H](NC(=O)[C@H](CCCCN)NC(=O)[C@H](Cc1c[nH]c2ccccc12)NC(=O)[C@H](CCCN=C(N)N)NC(=O)CNC(=O)[C@H](CCC(N)=O)NC(=O)[C@@H](NC(=O)[C@@H](N)CCCN=C(N)N)C(C)C)C(=O)N[C@@H](CCCN=C(N)N)C(=O)N[C@@H](C)C(=O)N[C@@H](CO)C(=O)N[C@@H](Cc1ccccc1)C(=O)N[C@@H](Cc1ccccc1)C(=O)N[C@@H](CCCCN)C(=O)O [RVQGRWKVRASFFK]
- MIC [29]: ≥ 36.3 µM
- MIC [30]: 4.53 µM (≈ 8 µg/mL)
- MIC [31]: ≥ 36.3 µM
- MIC [32]: 18.1 µM (≈ 32 µg/mL)
- MIC [16]: 36.3 µM (≈ 64 µg/mL)
- MIC [33]: 18.1 µM (≈ 32 µg/mL)
- MIC [34]: 18.1 µM (≈ 32 µg/mL)
- MIC [35]: 9.06 µM (≈ 16 µg/mL)
- MIC [36]: ≥ 36.3 µM
- MIC [37]: 4.53 µM (≈ 8 µg/mL)
- MIC [38]: 4.53 µM (≈ 8 µg/mL)
- MIC [39]: 9.06 µM (≈ 16 µg/mL)
